The values below come from patent US7211572B2 (Japan Tobacco Inc., priority 2003, dated 2007).

Structures can show the parent of a compound that is named as a salt.

The assay addresses T1, HIV integrase (Human immunodeficiency virus type 1 group M subtype B, UniProt P12497, F1332H).
T1 construct: HIV integrase full length gene; made in house; host or cells: Escherichia coli BL21(DE3), plasmid pET21a-INH
In words: Determination of enzyme (HIV integrase) inhibitory activity. Format: biochemical. Particulars: recombinant HIV integrase (F185H), strand transfer ELISA, absorbance at 450 nm. In outline: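 Full-length integrase with F185H, expressed in E. coli and purified, was reacted for 60 min at 37 °C with compound and biotinylated donor DNA bound to streptavidin plates. Target DNA was added for 10 min, then anti-digoxigenin-peroxidase detection at A450; IC50 from % inhibition versus enzyme-free blank.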

`O=c1ncn2ccn(Cc3cccc(Cl)c3)c(=O)c2c1O` [Example 100, 2-(3-chlorobenzyl)-9-hydroxy-2H-pyrazino[1,2-c]pyrimidine-1,8-dione hydrochloride]: the IC50 (commonly the concentration that gives 50% inhibition) lay within 0.01 to 0.1 µM. The result for `O=C(Nc1cn2ccn(Cc3cccc(Cl)c3)c(=O)c2c(O)c1=O)c1ccccn1` [Example 279, N-[2-(3-chlorobenzyl)-9-hydroxy-1,8-dioxo-1,8-dihydro-2H-pyrido[1,2-a]pyrazin-7-yl]pyridine-2-carboxamide trifluoroacetate] reads under 0.01 µM; that for `O=C1c2c(O)c(=O)ccn2CCN1Cc1ccc(Cl)c(Cl)c1` [Example 1, 2-(3,4-dichlorobenzyl)-9-hydroxy-3,4-dihydro-2H-pyrido[1,2-a]pyrazine-1,8-dione hydrochloride], under 0.01 µM.

In the case of `O=C(Cc1ccccn1)Nc1cn2ccn(Cc3cccc(Cl)c3)c(=O)c2c(O)c1=O` [Example 402, N-[2-(3-chlorobenzyl)-9-hydroxy-1,8-dioxo-1,8-dihydro-2H-pyrido[1,2-a]pyrazin-7-yl]-2-(pyridin-2-yl)acetamide hydrochloride], the IC50 is 0.01 to 0.1 µM. On to `O=C1c2c(O)c(=O)ccn2CCN1Cc1cccc(Cl)c1` [Example 43, 2-(3-chlorobenzyl)-9-hydroxy-3,4-dihydro-2H-pyrido[1,2-a]pyrazine-1,8-dione], for which the IC50 lay in the range of 0.01 to 0.1 µM. On to `O=Cc1cc(=O)c(O)c2n1CCN(Cc1ccc(Cl)c(Cl)c1)C2=O` [Example 48, 2-(3,4-dichlorobenzyl)-9-hydroxy-1,8-dioxo-1,3,4,8-tetrahydro-2H-pyrido[1,2-a]pyrazine-6-carbaldehyde], for which the IC50 lay in the range of 0.01 to 0.1 µM. The result for `O=C1c2c(O)c(=O)c(-c3nccs3)cn2CCN1Cc1ccc(Cl)c(F)c1` [Example 294, 2-(4-chloro-3-fluorobenzyl)-9-hydroxy-7-(thiazol-2-yl)-3,4-dihydro-2H-pyrido[1,2-a]pyrazine-1,8-dione] reads under 0.01 µM; that for `Cn1cc2c(c(O)c1=O)C(=O)N(Cc1cccc(C(F)(F)F)c1)CC2` [Example 143, 8-hydroxy-6-methyl-2-(3-trifluoromethylbenzyl)-2,3,4,6-tetrahydro-2,6-naphthyridine-1,7-dione], 0.1 to 1 µM. With `CC(C)Oc1cc(Cl)cc(CN2CCn3cc(-c4nccs4)c(=O)c(O)c3C2=O)c1` [Example 397, 2-(3-chloro-5-isopropoxybenzyl)-9-hydroxy-7-(thiazol-2-yl)-3,4-dihydro-2H-pyrido[1,2-a]pyrazine-1,8-dione hydrochloride], the IC50 fell in the range of 0.01 to 0.1 µM. As to `O=C(NCc1ccccc1)c1cn2c(c(O)c1=O)C(=O)N(Cc1cccc(Cl)c1)CC2` [Example 266, N-benzyl-2-(3-chlorobenzyl)-9-hydroxy-1,8-dioxo-1,3,4,8-tetrahydro-2H-pyrido[1,2-a]pyrazine-7-carboxamide], the IC50 was under 0.01 µM. For the molecule `O=C1c2c(O)c(=O)ccn2CCN1CCCc1ccccc1` [Example 50, 9-hydroxy-2-(3-phenylpropyl)-3,4-dihydro-2H-pyrido[1,2-a]pyrazine-1,8-dione], the IC50 lay within 0.01 to 0.1 µM. On to `CC(=O)c1cn2ccn(Cc3ccc(F)cc3)c(=O)c2c(O)c1=O` [Example 344, 7-acetyl-2-(4-fluorobenzyl)-9-hydroxy-2H-pyrido [1,2-a]pyrazine-1,8-dione], for which the IC50 was under 0.01 µM. The result for `CNC(=O)c1cn2c(c(O)c1=O)C(=O)N(Cc1cccc(Cl)c1)CC2` [Example 219, 2-(3-chlorobenzyl)-9-hydroxy-1,8-dioxo-1,3,4,8-tetrahydro-2H-pyrido[1,2-a]pyrazine-7-carboxylic acid methylamide] reads 0.01 to 0.1 µM; that for `CCc1cn2ccn(Cc3cccc(Cl)c3)c(=O)c2c(O)c1=O` [Example 134, 2-(3-chlorobenzyl)-7-ethyl-9-hydroxy-2H-pyrido[1,2-a]pyrazine-1,8-dione hydrochloride], 0.01 to 0.1 µM.

In the case of `CC(C)(C)C(O)c1cc(=O)c(O)c2n1CCN(Cc1ccc(Cl)c(Cl)c1)C2=O` (centres unmarked) [Example 68, 2-(3,4-dichlorobenzyl)-9-hydroxy-6-(1-hydroxy-2,2-dimethylpropyl)-3,4-dihydro-2H-pyrido[1,2-a]pyrazine-1,8-dione], the IC50 was 0.01 to 0.1 µM. For the molecule `O=C(NCc1cccc2ccccc12)c1cn2c(c(O)c1=O)C(=O)N(Cc1cccc(Cl)c1)CC2` [Example 269, N-(naphthalen-1-ylmethyl)-2-(3-chlorobenzyl)-9-hydroxy-1,8-dioxo-1,3,4,8-tetrahydro-2H-pyrido [1,2-a]pyrazine-7-carboxamide], the IC50 was under 0.01 µM.

On to `O=C1c2c(O)c(=O)c(-c3nccs3)cn2CCN1CCCc1c(F)cccc1Cl` [Example 264, 2-[3-(2-chloro-6-fluorophenyl)propyl]-9-hydroxy-7-(thiazol-2-yl)-3,4-dihydro-2H-pyrido[1,2-a]pyrazine-1,8-dione], for which the IC50 is under 0.01 µM. `O=c1c(-c2nnn[nH]2)cn2ccn(Cc3cccc(Cl)c3)c(=O)c2c1O` [Example 188, 2-(3-chlorobenzyl)-9-hydroxy-7-(1H-tetrazol-5-yl)-2H-pyrido[1,2-a]pyrazine-1,8-dione hydrochloride]: the IC50 fell in the range of 0.01 to 0.1 µM.

On to `CS(=O)(=O)c1cn2ccn(Cc3cccc(Cl)c3)c(=O)c2c(O)c1=O` [Example 246, 2-(3-chlorobenzyl)-9-hydroxy-7-methanesulfonyl-2H-pyrido[1,2-a]pyrazine-1,8-dione], for which the IC50 lay in the range of 0.01 to 0.1 µM. `CC(C)S(=O)(=O)Cc1cc(=O)c(O)c2n1CCN(Cc1ccc(Cl)c(Cl)c1)C2=O` [Example 37, 2-(3,4-dichlorobenzyl)-9-hydroxy-6-isopropylsulfonylmethyl-3,4-dihydro-2H-pyrido[1,2-a]pyrazine-1,8-dione]: the IC50 is 0.01 to 0.1 µM. `O=c1c(-c2ccccc2)cn2ccn(Cc3cccc(Cl)c3)c(=O)c2c1O` [Example 96, 2-(3-chlorobenzyl)-9-hydroxy-7-phenyl-2H-pyrido[1,2-a]pyrazine-1,8-dione hydrochloride]: the IC50 was under 0.01 µM. For `CC(O)CNC(=O)c1cn2ccn(Cc3cccc(Cl)c3)c(=O)c2c(O)c1=O` (centres unmarked) [Example 192, N-(2-hydroxypropyl)-2-(3-chlorobenzyl)-9-hydroxy-1,8-dioxo-1,8-dihydro-2H-pyrido[1,2-a]pyrazine-7-carboxamide hydrochloride], the IC50 is 0.01 to 0.1 µM. For the molecule `CC(C)(C)C(=O)c1cn2ccn(Cc3ccc(F)cc3)c(=O)c2c(O)c1=O` [Example 251, 7-(2,2-dimethylpropionyl)-2-(4-fluorobenzyl)-9-hydroxy-2H-pyrido[1,2-a]pyrazine-1,8-dione hydrochloride], the IC50 was under 0.01 µM. For `CC(C)C(=O)c1cn2c(c(O)c1=O)C(=O)N(Cc1cccc(Cl)c1)CC2` [Example 337, 2-(3-chlorobenzyl)-9-hydroxy-7-isobutyryl-3,4-dihydro-2H-pyrido[1,2-a]pyrazine-1,8-dione], the IC50 is under 0.01 µM. Consider `CC(=O)C(=O)Nc1cn2ccn(Cc3cccc(Cl)c3)c(=O)c2c(O)c1=O` [Example 265, N-[2-(3-chlorobenzyl)-9-hydroxy-1,8-dioxo-1,8-dihydro-2H-pyrido[1,2-a]pyrazin-7-yl]-2-oxopropionamide], for which the IC50 is under 0.01 µM. As to `CC(C)(CO)C(=O)c1cn2ccn(Cc3cccc(Cl)c3)c(=O)c2c(O)c1=O` [Example 230, 2-(3-chlorobenzyl)-9-hydroxy-7-(3-hydroxy-2,2-dimethylpropionyl)-2H-pyrido[1,2-a]pyrazine-1,8-dione hydrochloride], the IC50 is under 0.01 µM.
